Activity calls are given as the source filed them. The calls are words filed in the database; no cut-off is given here.
Columns and labels:
[1] = molecular target: T1, Sterol carrier protein 2 (Homo sapiens) (UniProt P22307); assay: Binding affinity to SCP2 cysteine residue in human 786-O cell soluble proteomic lysate at 5 uM incubated for 1 hr followed by cell lysis by IA-alkyne probe based isoTOP-ABPP analysis
T1 sequence (whole entry): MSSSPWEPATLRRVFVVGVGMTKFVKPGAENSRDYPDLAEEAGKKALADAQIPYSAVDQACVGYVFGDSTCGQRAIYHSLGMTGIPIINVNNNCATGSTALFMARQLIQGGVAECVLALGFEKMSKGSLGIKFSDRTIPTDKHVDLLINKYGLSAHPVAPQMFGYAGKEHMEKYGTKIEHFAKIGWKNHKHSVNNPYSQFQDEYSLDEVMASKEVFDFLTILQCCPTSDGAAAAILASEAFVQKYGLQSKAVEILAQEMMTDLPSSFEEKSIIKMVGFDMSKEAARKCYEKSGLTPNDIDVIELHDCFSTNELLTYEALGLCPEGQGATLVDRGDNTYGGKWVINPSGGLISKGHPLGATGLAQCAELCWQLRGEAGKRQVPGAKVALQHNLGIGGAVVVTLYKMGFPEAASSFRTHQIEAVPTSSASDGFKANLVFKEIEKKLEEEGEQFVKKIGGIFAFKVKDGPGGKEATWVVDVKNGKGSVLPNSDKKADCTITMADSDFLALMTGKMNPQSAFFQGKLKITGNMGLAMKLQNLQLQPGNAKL

[2] = molecular target: T2, Nicotinamide N-methyltransferase (Homo sapiens, UniProt P40261); assay: Inhibition of NNMT in human 786-O cell lysate using d4-nicotinamide as substrate pretreated for 1 hr at 3 mins post 40 uM SAM addition followed by substrate addition measured after 15 to 30 mins by LC-MS analysis
T2 sequence (P40261 whole entry): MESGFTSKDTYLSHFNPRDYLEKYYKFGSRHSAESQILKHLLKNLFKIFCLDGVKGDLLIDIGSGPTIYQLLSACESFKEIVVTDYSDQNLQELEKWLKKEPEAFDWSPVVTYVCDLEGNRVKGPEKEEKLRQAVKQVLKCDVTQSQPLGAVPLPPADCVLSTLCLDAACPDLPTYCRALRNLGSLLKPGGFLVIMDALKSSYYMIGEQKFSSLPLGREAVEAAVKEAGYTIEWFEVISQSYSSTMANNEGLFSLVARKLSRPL

[3] = molecular target: T3, Nicotinamide N-methyltransferase (Homo sapiens) (UniProt P40261); assay: Inhibition of SAH-rhodamine binding to NNMT in human 786-O cell soluble proteomic lysate preincubated for 1 hr followed by SAH-rhodamine addition measured after 5 mins by Gel-based ABPP analysis
T3 sequence (whole entry): T2 sequence (P40261 whole entry)

[4] = molecular target: T2, Nicotinamide N-methyltransferase; assay: Inhibition of NNMT in human 786-O cell lysate using d4-nicotinamide as substrate pretreated for 1 hr at 3 mins post 80 uM SAM addition followed by substrate addition measured after 15 to 30 mins by LC-MS analysis
[5] = molecular target: T2, Nicotinamide N-methyltransferase; assay: Inhibition of NNMT in human 786-O cell lysate using d4-nicotinamide as substrate pretreated for 1 hr at 3 mins post 20 uM SAM addition followed by substrate addition measured after 15 to 30 mins by LC-MS analysis
[6] = molecular target: T3, Nicotinamide N-methyltransferase (Homo sapiens); assay: Inhibition of NNMT in human 786-O cell lysate using d4-nicotinamide as substrate preincubated for 1 hr followed by substrate and SAM addition measured after 15 to 30 mins by LC-MS analysis
[7] = molecular target: T4, Cytoskeleton-associated protein 4 (Homo sapiens) (UniProt Q07065); assay: Binding affinity to CKAP4 cysteine residue in human 786-O cell soluble proteomic lysate at 5 uM incubated for 1 hr followed by cell lysis by IA-alkyne probe based isoTOP-ABPP analysis
T4 sequence (whole entry): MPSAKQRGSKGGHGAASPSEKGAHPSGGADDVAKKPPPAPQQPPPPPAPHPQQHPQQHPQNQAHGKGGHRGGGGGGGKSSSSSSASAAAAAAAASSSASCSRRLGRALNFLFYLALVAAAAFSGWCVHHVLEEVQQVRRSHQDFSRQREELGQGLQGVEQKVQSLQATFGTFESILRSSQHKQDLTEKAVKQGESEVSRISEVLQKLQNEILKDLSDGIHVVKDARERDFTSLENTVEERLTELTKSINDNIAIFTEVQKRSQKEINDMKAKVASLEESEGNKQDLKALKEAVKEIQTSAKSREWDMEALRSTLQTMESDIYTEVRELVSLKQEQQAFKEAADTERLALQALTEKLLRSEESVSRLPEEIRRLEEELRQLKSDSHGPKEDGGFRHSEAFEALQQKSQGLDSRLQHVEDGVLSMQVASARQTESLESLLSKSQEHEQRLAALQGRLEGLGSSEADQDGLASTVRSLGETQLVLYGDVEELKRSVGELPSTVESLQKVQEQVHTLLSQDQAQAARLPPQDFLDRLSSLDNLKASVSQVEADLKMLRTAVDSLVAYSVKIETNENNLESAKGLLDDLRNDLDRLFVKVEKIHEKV

[8] = molecular target: Receptor expression-enhancing protein 5 (Homo sapiens) (UniProt Q00765); assay: Binding affinity to REEP5 cysteine residue in human 786-O cell soluble proteomic lysate at 5 uM incubated for 1 hr followed by cell lysis by IA-alkyne probe based isoTOP-ABPP analysis
[9] = molecular target: T5, Thioredoxin domain-containing protein 17 (Homo sapiens) (UniProt Q9BRA2); assay: Binding affinity to TXNDC17 cysteine residue in human 786-O cell lysate at 5 uM incubated for 1 hr followed by cell lysis by IA-alkyne probe based isoTOP-ABPP analysis
T5 sequence (whole entry): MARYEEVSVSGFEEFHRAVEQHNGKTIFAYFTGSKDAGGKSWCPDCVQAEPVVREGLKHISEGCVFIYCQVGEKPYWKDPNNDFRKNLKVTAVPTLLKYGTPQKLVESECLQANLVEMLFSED

[10] = molecular target: T2, Nicotinamide N-methyltransferase; assay: Inhibition of NNMT in human 786-O cell lysate using d4-nicotinamide as substrate pretreated for 1 hr at 3 mins post 10 uM SAM addition followed by substrate addition measured after 15 to 30 mins by LC-MS analysis

Sequence of Receptor expression-enhancing protein 5 (Homo sapiens) (Q00765 whole entry, the tested form may be a part): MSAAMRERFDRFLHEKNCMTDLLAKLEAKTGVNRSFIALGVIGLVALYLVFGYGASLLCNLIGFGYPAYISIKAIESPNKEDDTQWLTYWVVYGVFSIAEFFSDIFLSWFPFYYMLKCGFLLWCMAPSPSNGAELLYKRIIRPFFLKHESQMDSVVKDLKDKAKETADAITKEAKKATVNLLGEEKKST

Row | SMILES | Activity [1] | IC50 [2] | inhibition [3] | IC50 [4] | IC50 [5] | inhibition [6] | Activity [7] | Activity [8] | Activity [9] | IC50 [10]
1 | O=C(Nc1cccnc1Cl)c1cc(N(CCCc2ccccc2)C(=O)CCl)cc(C(F)(F)F)c1 | Active | – | – | – | – | – | – | – | – | –
2 | CC(C)CCN(C(=O)CCl)c1cc(C(=O)NCc2cccc([N+](=O)[O-])c2)cc(C(F)(F)F)c1 | – | 10 µM | Dose-dependent effect | 39 µM | 6.2 µM | Dose-dependent effect | Active | Active | Active | 4 µM

From ChEMBL document CHEMBL4229400, “Covalent inhibitors of nicotinamide N-methyltransferase (NNMT) provide evidence for target engagement challenges in situ” (Bioorg Med Chem Lett, 2018)
